# Data from article PMC10427391, “Identification of Cytochrome P450 2E1 as a Novel Target in Glioma and Development of Its Inhibitor as an Anti‐Tumor Agent” (Advanced Science, 2023).
# Where two headings read alike, the source gives them in different places.
# Experiments:
# CYP2A6 = molecular target: T1, CYP2A6 (Homo sapiens, UniProt P11509); experiment: Selectivity, microsomal incubation, CYP2A6 (coumarin as substrate); assay type: biochemical
# T1 construct: A 100 µL microsomal incubation system; from tissue
# T1 sequence (P11509 1-494): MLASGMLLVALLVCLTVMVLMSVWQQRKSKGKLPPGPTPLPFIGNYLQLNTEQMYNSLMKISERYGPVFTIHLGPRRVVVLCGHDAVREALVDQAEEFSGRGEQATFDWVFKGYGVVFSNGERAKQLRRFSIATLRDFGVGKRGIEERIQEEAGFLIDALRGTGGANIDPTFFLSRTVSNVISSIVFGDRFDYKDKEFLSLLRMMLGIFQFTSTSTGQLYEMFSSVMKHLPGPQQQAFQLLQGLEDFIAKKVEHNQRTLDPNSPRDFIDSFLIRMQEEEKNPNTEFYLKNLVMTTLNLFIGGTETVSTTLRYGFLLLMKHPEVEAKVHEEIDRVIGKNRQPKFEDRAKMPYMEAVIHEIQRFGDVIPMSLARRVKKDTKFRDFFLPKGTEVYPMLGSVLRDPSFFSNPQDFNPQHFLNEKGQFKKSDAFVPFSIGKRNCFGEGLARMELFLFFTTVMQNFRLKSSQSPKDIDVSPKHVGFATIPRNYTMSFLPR
# Protocol: (§1) A 100 µL microsomal incubation system^[ [44] ^] contained probe drugs for each CYP with different series of concentrations, Q11, phosphate buffer, EDTA, magnesium chloride, and substrates (phenacetin for CYP1A2, coumarin for CYP2A6, bupropion for CYP2B6, paclitaxel for CYP2C8, tolbutamide for CYP2C9, omeprazole for CYP2C19, dextromethorphan for CYP2D6, chlorzoxazone for CYP2E1, midazolam for CYP3A4/5). HPLC‐UV and HPLC‐FLD were used to measure the number of metabolites.
# [1] = system: other CYP enzymes (CYP1A2, CYP2B6, CYP2C8, CYP2C9, CYP2C19, CYP2D6, CYP3A4/5); experiment: Selectivity, microsomal incubation, remaining CYPs; assay type: biochemical; conditions: probe substrates
# Protocol: as §1
# CYP2E1 [2] = molecular target: T2, CYP2E1 (Rattus norvegicus, UniProt P05182); experiment: In vivo inhibition of CYP2E1 activity by metabolism of diethylnitrosamine (DEN), self-controlled cross-administration; set-up: species or system rats; conditions: DEN 50 mg kg^−1 i.p.
# T2 construct: from tissue; host or cells: living rats (whole animal, endogenous enzyme)
# T2 sequence (P05182 whole entry): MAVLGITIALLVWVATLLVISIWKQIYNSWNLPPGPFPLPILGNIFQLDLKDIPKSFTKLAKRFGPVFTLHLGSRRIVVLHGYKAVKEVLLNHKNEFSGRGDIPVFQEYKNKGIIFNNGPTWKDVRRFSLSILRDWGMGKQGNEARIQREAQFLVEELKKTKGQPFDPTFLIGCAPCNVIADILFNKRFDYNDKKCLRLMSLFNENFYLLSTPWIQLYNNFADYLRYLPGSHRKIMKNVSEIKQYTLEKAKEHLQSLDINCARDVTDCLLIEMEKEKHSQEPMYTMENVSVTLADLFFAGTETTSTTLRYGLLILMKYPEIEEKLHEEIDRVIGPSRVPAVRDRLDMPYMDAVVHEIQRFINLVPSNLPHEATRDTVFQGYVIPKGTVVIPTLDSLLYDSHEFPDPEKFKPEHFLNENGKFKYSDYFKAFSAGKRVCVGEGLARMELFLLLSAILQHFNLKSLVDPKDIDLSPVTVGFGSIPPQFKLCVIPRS
# Protocol: A self‐controlled cross‐administration experiment was designed based on previous report.^[ [45] ^] In the first round of the experiment, a single intraperitoneal injection of diethylnitrosamine at 50 mg kg^−1 was given in the first week. After a 1‐week interval, the second round of the experiment was conducted, where each rat was given Q11 at 6, 30, or 150 mg kg^−1 (i.g), and then, after 5 min, an intraperitoneal injection of diethylnitrosamine at 50 mg kg^−1 was given. Collection of orbital blood was carried out at 2, 7, 15, 30 min and 1, 2, 4, 6, 9, 12, 24, 36, 48, 60 h.
# [3] = Bioavailability and pharmacokinetics of Q11 in rats; assay type: in vivo, SD rats
# Protocol: Eight healthy male SD rats were randomly divided into 2 groups (4 rats in each group) using a double‐period self‐cross control principle. The first group was given Q11 (30 mg kg^−1, i.g), and the second group was given Q11 (30 mg kg^−1, i.v.). One week later, a second round of experiments was conducted in which Q11 (30 mg kg^−1, i.v.) was given to the first group of rats and Q11 (30 mg kg^−1, i.g) was given to the second group. Collection of orbital blood was carried out at 0, 2, 7, 15, 30 min and 1, 2, 4, 6, 9, 12, 24 h after Q11 administration.
# Thirty healthy male SD rats were randomly divided into three equal groups. Q11 was administrated at 6, 30, or 150 mg kg^−1 (i.g) to these three groups. Collection of orbital blood was carried out at 0, 2, 7, 15, 30 min and 1, 2, 4, 6, 9, 12, 24, 36 h after Q11 administration.
# [4] = Central inhibitory effect; conditions: clomethiazole: at a dose that inhibited CYP2E1
# CYP2E1 [5] = molecular target: T3, CYP2E1 (Homo sapiens, UniProt P05181); experiment: Surface plasmon resonance binding of Q11 to CYP2E1 (Biacore 8k); set-up: purchased Cloud-Clone Corp. Wuhan
# Protocol: Surface Plasma Resonance (SPR) experiments^[ [43] ^] were carried out using the Biacore system (Biacore 8k, Cytiva). Recombinant CYP2E1 protein was purified by Cloud‐Clone Corp. Wuhan. Running buffer contained PBS (2 mM KH2PO4, 10 mM Na2HPO4, 137 mM NaCl, 2.7 mM KCl) with 0.005% Tween‐20, pH 7.4. CYP2E1 protein was diluted to 25 µg mL^−1 in immobilization buffer and bound to a CM5 chip at about 2000RU. Immobilization buffer contained 10 mM sodium acetate, pH 4.0. Samples of compound Q11 were diluted in running buffer with 125, 62.5, 31.25, 15.625, 7.8, 3.9, 1.95 µM and injected at 30 µL min^−1 for 60 s contact time followed by dissociation for 120 s. The data was fitted with Biacore Insight Evaluation software (Version 2.0).
# Target sequence in this assay (P05181 whole entry, species assumed): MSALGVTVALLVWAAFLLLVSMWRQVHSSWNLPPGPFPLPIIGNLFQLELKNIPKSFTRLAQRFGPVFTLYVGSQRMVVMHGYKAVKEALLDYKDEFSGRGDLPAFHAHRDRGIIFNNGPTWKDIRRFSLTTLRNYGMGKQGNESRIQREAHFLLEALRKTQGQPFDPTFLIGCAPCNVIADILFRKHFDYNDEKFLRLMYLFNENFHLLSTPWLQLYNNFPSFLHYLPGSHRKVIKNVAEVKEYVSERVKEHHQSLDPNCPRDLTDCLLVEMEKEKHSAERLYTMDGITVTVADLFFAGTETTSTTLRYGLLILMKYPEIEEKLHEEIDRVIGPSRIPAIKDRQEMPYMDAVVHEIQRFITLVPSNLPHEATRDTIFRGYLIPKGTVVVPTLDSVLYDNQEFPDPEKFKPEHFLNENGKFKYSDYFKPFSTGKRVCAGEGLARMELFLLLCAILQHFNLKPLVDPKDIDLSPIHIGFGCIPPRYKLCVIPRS
# [6] = Long-term Q11 treatment, safety, mice; conditions: 26 weeks
# [7] = Long-term Q11 treatment, safety, rats; conditions: 12 weeks
# C6 = experiment: Direct effect on glioma cells (CCK-8), C6; conditions: concentrations below 100 µM
# U251 cells [8] = experiment: Direct effect on glioma cells (CCK-8), U251; conditions: concentrations below 100 µM
# GL261 cells [9] = experiment: Direct effect on glioma cells (CCK-8), GL261; conditions: concentrations below 100 µM
# CYP2E1 [10] = molecular target: T3, CYP2E1; experiment: In vitro inhibition of CYP2E1 (chlorzoxazone as substrate); assay type: biochemical; set-up: A 100 µL microsomal incubation system; from tissue
# Protocol: Chlorzoxazone with a concentration of 62.5 µM and inhibitors with different gradient concentrations were selected to plot the inhibition of chlorzoxazone and to calculate the IC50 of the inhibitor. A Lineweaver–Burk curve was used to determine the mechanism and calculate the K i of inhibitors of CYP2E1.
# as §1
# Target sequence in this assay (P05181 whole entry): as the sequence (P05181 whole entry, species assumed) above
# intracerebral glioma = experiment: Kaplan–Meier survival of mice with intracerebral glioma; conditions: Q11 30 mg kg^−1 vs saline, P log-rank = 0.0017
# [11] = system: microglia/macrophage of tumor microenvironment; experiment: Immunohistochemistry of CD206 and CD86 on tumor tissues; conditions: Q11 group vs model
# Protocol: Paraffin‐embedded specimens were cut into 4‐µm sections. After deparaffinization with xylene and rehydration, antigen retrieval was performed. For immunohistochemistry (IHC), endogenous peroxidase activity was blocked with 3% H2O2 in methanol. Primary antibodies against CYP2E1 (1:200, Abcam, ab28146), Iba‐1 (1:150, Servicebio, China), CD206 (1:150, Servicebio), and CD86 (1:150, Servicebio) were used and results were evaluated blindly by two pathologists and quantified by IPP 6.0 soft.
# [12] = system: glioma induced by C6 cells; experiment: Intracranial orthotopic glioma model induced by C6 cells; conditions: SD rat, oral 30 mg kg^−1
# GBM = experiment: Intracranial glioma models overall (rats, mice, nude mice)
# [13] = system: glioma induced by GL261 cells; experiment: Intracranial orthotopic glioma model induced by GL261 cells; conditions: C57BL/6 mouse
# [14] = system: glioma induced by U251‐LUC cells; experiment: Intracranial orthotopic glioma model induced by U251-LUC cells; conditions: for bioluminescence in tumor sites: day 14 after transplantation, Q11 at 10 and 30 mg kg^−1; for brain weight / tumor diameter / tumor volume: endpoint day 36 after transplantation
# GL261 cells [15] = experiment: Cell cycle of GL261 cells in co-culture with primary microglia
# HMC‐3 cells = experiment: HMC-3 cells transfected with CYP2E1 plasmids: PPAR-γ and cytokines; conditions: HMC-3 transfected with CYP2E1 plasmids
# GL261 cells [16] = experiment: Migration (wound assay) of GL261 cells in co-culture with microglia/macrophages; conditions: 24 h
# [17] = system: inflammatory factors in TME; experiment: Inflammatory factors in the tumor microenvironment of C6 orthotopic xenograft model; conditions: C6 model rats
# [18] = In vivo biodistribution / BBB permeability of Q11 (plasma, cortex, hippocampus, HPLC)
# U251 cells [19] = experiment: Proliferation of glioma cells in indirect co-culture with microglia/macrophages, U251; conditions: co-cultured with primary microglia, RAW 264.7 or THP-1 macrophages
# GL261 cells [20] = experiment: Apoptosis (Annexin V-FITC/PI) of GL261 cells in co-culture with microglia/macrophages
# GL261 cells [21] = experiment: Proliferation of glioma cells in indirect co-culture with microglia/macrophages, GL261; conditions: co-cultured with primary microglia, RAW 264.7 or THP-1 macrophages
# primary microglia = experiment: Primary microglia induced by IL-4 and IL-13: polarization markers and signaling (western blot, immunofluorescence)
# Protocol: Tissues and cells were harvested and lysed with RIPA buffer. The protein concentration was determined using a BCA kit. Samples were separated on 10% SDS‐PAGE gels and blotted onto nitrocellulose membranes (Millipore).The membranes were incubated with primary antibodies at 4 °C overnight, washed three times with TBST, and then incubated with HRP‐conjugated anti‐mouse IgG or anti‐rabbit IgG diluted in TBST containing 1% non‐fat milk at room temperature for 1 h. After final washing with TBST, the membranes were developed by using ECL.
# U251 cells [22] = experiment: U251 glioma cells with conditioned medium of CYP2E1-overexpressing HMC-3 cells (proliferation, migration, apoptosis)
# [23] = IL-4 and IL-13 10 ng mL^−1, 24 h
# [24] = Q11 medium- and high-dose groups vs IL-4/IL-13 group
compound,measurement,setting,value
"CC(=O)c1scnc1C [Compound Q11, 1‐(4‐methyl‐5‐thialzolyl) ethanone]",IC50,CYP2A6,76.2 µM
same,inhibition of other CYP enzymes,[1],no inhibition
same,inhibition ratio in terms of clearance (CL) of diethylnitrosamine (DEN),CYP2E1 [2]; Q11 6 mg kg^−1 i.g.,63.98%
same,inhibition ratio in terms of clearance (CL) of diethylnitrosamine (DEN),CYP2E1 [2]; Q11 30 mg kg^−1 i.g.,79.63%
same,inhibition ratio in terms of clearance (CL) of diethylnitrosamine (DEN),CYP2E1 [2]; Q11 150 mg kg^−1 i.g.,85.42%
same,Tmax,"[3]; male, SD, rat, blood, 30 mg kg^−1, oral administration, read-out: mean T max",0.45 h
same,half-life,"[3]; male, SD, rat, blood, 30 mg kg^−1, oral administration, read-out: mean t 1/2 (converted)",3.05 h
same,bioavailability,"[3]; male, SD, rat, blood, oral vs intravenous, 30 mg kg^−1",94.7%
same,dose dependence of pharmacokinetic parameters,"[3]; oral, dose 6 to 150 mg kg^−1",proportional changes
same,central inhibitory effect,[4],does not show a central inhibitory effect
same,Kd,CYP2E1 [5],7 µM
same,adverse reactions on long-term treatment,[6],no adverse reactions
same,adverse reactions on long-term treatment,[7],no adverse reactions
same,direct killing of C6 cells,C6,did not directly kill
same,direct killing of U251 cells,U251 cells [8],did not directly kill
same,direct killing of GL261 cells,GL261 cells [9],did not directly kill
same,IC50,CYP2E1 [10],1.64 µM
same,Ki,CYP2E1 [10],0.897 µM
same,type of inhibition of CYP2E1,CYP2E1 [10]; Lineweaver–Burk plot,competitive‐noncompetitive mixed‐type inhibitor
same,mean survival time,intracerebral glioma,32 days
same,CD86 (M1 marker) positive cells,[11],increased significantly
same,number of CD206 (M2 marker) positive cells,[11],significantly reduced
same,"growth of tumor (brain weight, tumor diameter, tumor weight)",[12],significantly suppressed
same,tumor-induced weight loss,GBM; intracranial xenografts,obviously improved
same,inhibitory effect on glioma growth compared with TMZ,GBM; orthotopic glioma models,superior to that of TMZ
same,"growth of glioma (brain weight, tumor diameter, volumes)",[13],significantly inhibited
same,bioluminescence in tumor sites,[14],lesser bioluminescence
same,brain weight,[14],markedly suppressed
same,tumor diameter,[14],markedly suppressed
same,tumor volume,[14],markedly suppressed
same,cell cycle of GL261 cells,GL261 cells [15],arrested the cell cycle in S phase
same,"changes caused by CYP2E1 overexpression (PPAR-γ, IL-4, IL-10, TGFβ up; IL-1α, IL-1β down)",HMC‐3 cells,significantly blocked the changes
same,migration of GL261 cells,GL261 cells [16],restrained migration
same,"M1-like inflammatory factors (IL-1β, TNF-α)",[17],increased
same,"M2-like inflammatory factors (IL-4, TGF-β, IL-10, VEGFB, IL-6)",[17],significantly decreased
same,plasma concentration at peak,"[18]; SD rats, 30 mg kg^−1 intragastric, about 1 h",14.75 ng/mL
same,blood brain barrier (BBB) permeability,"[18]; SD rats, 30 mg kg^−1 intragastric, cortex and hippocampus parallel to plasma",capable of penetrating BBB
same,Tmax,"[18]; female, SD, rat, in vivo, po, 30 mg/kg",~1 h
same,concentration at 4 h,"[18]; female, SD, rat, plasma, oral, 30 mg kg^−1",9.21 ng/mL
same,proliferation of U251 cells in co-culture,U251 cells [19],significantly inhibited
same,apoptosis of GL261 cells,GL261 cells [20],promoted apoptosis
same,proliferation of GL261 cells in co-culture,GL261 cells [21],significantly inhibited
same,Arg-1 (M2 marker) expression,primary microglia; [23],significantly reduced
same,iNOS (M1 marker) expression,primary microglia; [23],increased
same,p-STAT-1 and p-NF-κB,primary microglia; [24],significantly increased
same,p-STAT-3 and p-STAT-6,primary microglia; [24],significantly decreased
same,PPAR-γ expression,primary microglia; after induction by IL-4 and IL-13,significantly inhibited
same,"tumor-promoting effects of upregulating CYP2E1 in HMC-3 (proliferation, migration, apoptosis of U251)",U251 cells [22],reversed
"O=C(Nc1ccccc1)c1cc([N+](=O)[O-])ccc1Cl [GW9662, reference compound]",PPAR-γ expression in presence of rosiglitazone,"primary microglia; antagonist of PPARγ, blocked the ability of rosiglitazone",downregulated
"CN(CCOc1ccc(CC2SC(=O)NC2=O)cc1)c1ccccn1 (centres unmarked) [Rosiglitazone, reference compound]",effect on the action of Q11 (PPAR-γ dependence),primary microglia; agonist of PPAR-γ added to Q11,completely blocked the effect of Q11
"Cn1nnc2c(C(N)=O)ncn2c1=O [TMZ, temozolomide, reference compound]",bioluminescence in tumor sites,[14],lesser bioluminescence
same,brain weight,[14],markedly suppressed
same,tumor diameter,[14],markedly suppressed
same,tumor volume,[14],markedly suppressed
"Cc1ncsc1CCCl [clomethiazole, reference compound]",central inhibitory effect,[4],significant central inhibitory effect
same,IC50,"CYP2E1 [10]; chlorzoxazone 62.5 µM, read-out: IC50 of inhibition on CYP2E1",39.3 µM
